Here are results for 16 compounds from PubChem BioAssay AID330 (DTP/NCI, 2004).

In the test the test system is P388 leukemia ip, CD2F1 mice, survival T/C. Description: NCI In Vivo Anticancer Drug Screen. Data for tumor model P388 Leukemia (intraperitoneal) in CD2F1 (CDF1) mice. To be noted: endpoint: median survival time, higher = longer survival. In short, it runs like this: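 Mice carrying the transplanted tumor received test compound or vehicle. Survival was recorded in each group, and the value is the treated-group measurement divided by that of the vehicle-treated control group.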

[1] abbreviates: dose: 60.0 mg/kg/injection, schedule: Q01DX005 (ip), vehicle: saline with Tween-80.
The mark [2] stands for this setting: dose: 120.0 mg/kg/injection, schedule: Q01DX005 (ip), vehicle: saline with Tween-80.
The mark [3] stands for this setting: dose: 240.0 mg/kg/injection, schedule: Q01DX005 (ip), vehicle: saline with Tween-80.
The mark [4] stands for this setting: dose: 50.0 mg/kg/injection, schedule: Q01DX009 (ip), vehicle: saline with Tween-80.
Where [5] appears, read: dose: 100.0 mg/kg/injection, schedule: Q01DX009 (ip), vehicle: saline with Tween-80.
[6] abbreviates: dose: 200.0 mg/kg/injection, schedule: Q01DX009 (ip), vehicle: saline with Tween-80.

Values joined by “and” are separate entries in the source; they are usually repeats but may differ in a detail not shown here. Equal values may be shown once. Inconclusive results and toxic doses are left out.

As for `O=C1C(=Cc2ccccc2)C(=O)c2ccccc21`, the T/C runs as follows: (dose: 25.0 mg/kg/injection, schedule: Q04DX002 (ip), vehicle: saline with Tween-80) 108 % of control; (dose: 50.0 mg/kg/injection, schedule: Q04DX002 (ip), vehicle: saline with Tween-80) 109 % of control; (dose: 100.0 mg/kg/injection, schedule: Q04DX002 (ip), vehicle: saline with Tween-80) 109 % of control; (dose: 200.0 mg/kg/injection, schedule: Q04DX002 (ip), vehicle: saline with Tween-80) 107 % of control; (dose: 400.0 mg/kg/injection, schedule: Q04DX002 (ip), vehicle: saline with Tween-80) 112 % of control.

As to `O=C1N2CCCSC2=NC1(c1ccccc1)c1ccccc1`, the T/C is 97 % of control under setting [1], 98 % of control under setting [2] and 89 % of control under setting [3].

As to `O=c1cc(O)cc[nH]1`, the T/C (dose: 400.0 mg/kg/injection, schedule: Q01DX009 (ip), vehicle: saline) was 100 % of control and 96 % of control; the T/C (dose: 600.0 mg/kg/injection, schedule: Q01DX009 (ip), vehicle: saline) was 101 % of control and 106 % of control.

`CC(=O)Oc1nnc(OC(C)=O)n1-c1ccccc1`: the T/C was 114 % of control (dose: 50.0 mg/kg/injection, schedule: Q01DX005 (ip), vehicle: Klucel (hydroxypropylcellulose) (HPC)); 111 % of control (dose: 100.0 mg/kg/injection, schedule: Q01DX005 (ip), vehicle: Klucel (hydroxypropylcellulose) (HPC)); 115 % of control (dose: 200.0 mg/kg/injection, schedule: Q01DX005 (ip), vehicle: Klucel (hydroxypropylcellulose) (HPC)).

Consider `COCC1CCOC(C(C)C)O1` (stereo not drawn), for which the T/C reads like this: (dose: 60.0 mg/kg/injection, schedule: Q01DX005 (ip), vehicle: saline) 101 % of control; (dose: 120.0 mg/kg/injection, schedule: Q01DX005 (ip), vehicle: saline) 100 % of control; (dose: 240.0 mg/kg/injection, schedule: Q01DX005 (ip), vehicle: saline) 100 % of control.

Turning to `O=C(CCCl)Nc1cccc(CCC(=O)c2cccc(NC(=O)CCCl)c2)c1`, the T/C is 103 % of control (dose: 15.0 mg/kg/injection, schedule: Q01DX005 (ip), vehicle: saline with Tween-80); 103 % of control (dose: 30.0 mg/kg/injection, schedule: Q01DX005 (ip), vehicle: saline with Tween-80); 102 % of control and 103 % of control under setting [1]; 103 % of control under setting [2]; 110 % of control under setting [3].

In the case of `COc1ccc(C(CC(=O)O)CC(=O)c2ccc(N(CCCl)CCCl)cc2)cc1` (stereo not drawn), the T/C runs as follows: (dose: 100.0 mg/kg/injection, schedule: Q01DX001 (ip), vehicle: suspension in saline) 98 % of control; (dose: 200.0 mg/kg/injection, schedule: Q01DX001 (ip), vehicle: suspension in saline) 99 % of control.

Regarding `Nc1cc2nc3ccccc3sc-2cc1=O`, the T/C reads like this: under setting [4], 112 % of control; under setting [5], 111 % of control; under setting [6], 113 % of control; (dose: 400.0 mg/kg/injection, schedule: Q01DX009 (ip), vehicle: saline with Tween-80) 89 % of control.

Take `CN1c2ccccc2S(=O)(=O)n2nnnc21`: the T/C runs as follows: (dose: 100.0 mg/kg/injection, schedule: Q01DX001 (ip), vehicle: saline with Tween-80) 101 % of control; (dose: 200.0 mg/kg/injection, schedule: Q01DX001 (ip), vehicle: saline with Tween-80) 101 % of control; (dose: 400.0 mg/kg/injection, schedule: Q01DX001 (ip), vehicle: saline with Tween-80) 97 % of control.

Take `Cc1csc(/N=C2\N/C(=N\c3nc(C)cs3)c3ccccc32)n1`: the T/C was 88 % of control under setting [4] and 86 % of control under setting [5].

With `S=C(S)C1=C(NCCCCCCNC2=C(C(=S)S)CCC2)CCC1`, the T/C runs as follows: (dose: 100.0 mg/kg/injection, schedule: Q01DX001 (ip), vehicle: Klucel (hydroxypropylcellulose) (HPC)) 100 % of control; (dose: 200.0 mg/kg/injection, schedule: Q01DX001 (ip), vehicle: Klucel (hydroxypropylcellulose) (HPC)) 94 % of control; (dose: 400.0 mg/kg/injection, schedule: Q01DX001 (ip), vehicle: Klucel (hydroxypropylcellulose) (HPC)) 100 % of control.

Take `O=c1c2ccccc2nnn1Cc1ccco1`: the T/C is, setting by setting: (dose: 1.25 mg/kg/injection, schedule: Q01DX005 (ip), vehicle: saline with Tween-80) 100 % of control; (dose: 12.5 mg/kg/injection, schedule: Q01DX005 (ip), vehicle: saline with Tween-80) 92 % of control; (dose: 25.0 mg/kg/injection, schedule: Q01DX005 (ip), vehicle: saline with Tween-80) 100 % of control and 90 % of control; (dose: 50.0 mg/kg/injection, schedule: Q01DX005 (ip), vehicle: saline with Tween-80) 104 % of control and 90 % of control; (dose: 100.0 mg/kg/injection, schedule: Q01DX005 (ip), vehicle: saline with Tween-80) 92 % of control and 93 % of control.

With `C=CCC(NC(=O)c1ccccc1)C(=O)O` (stereo not drawn), the T/C runs as follows: under setting [4], 100 % of control; under setting [5], 98 % of control; under setting [6], 95 % of control.

Turning to `COC(=O)[C@@H]1c2cc3c(c(O)c2[C@@H](OC2OC(C)C(OC)C(C)(OC)C2OC)C[C@]1(C)O)C(=O)c1c(O)cc2c(c1C3=O)O[C@H]1O[C@]2(C)[C@H](O)[C@@H](N(C)C)[C@@H]1O` (stereo partly drawn), the T/C by setting is: (dose: 0.12 mg/kg/injection, schedule: Q01DX009 (ip), vehicle: saline) 120 % of control; (dose: 0.25 mg/kg/injection, schedule: Q01DX009 (ip), vehicle: other) 122 % of control; (dose: 0.25 mg/kg/injection, schedule: Q01DX010 (ip), vehicle: saline) 110 % of control; (dose: 0.25 mg/kg/injection, schedule: Q04DX003 (ip), vehicle: other) 116 % of control; (dose: 0.25 mg/kg/injection, schedule: Q04DX003 (ip), vehicle: saline) 117 % of control; (dose: 0.43 mg/kg/injection, schedule: Q04DX003 (ip), vehicle: water) 112 % of control. In addition, the T/C is, setting by setting: (dose: 0.5 mg/kg/injection, schedule: Q01DX009 (ip), vehicle: other) 118 % of control; (dose: 0.5 mg/kg/injection, schedule: Q01DX010 (ip), vehicle: saline) 105 % of control; (dose: 0.5 mg/kg/injection, schedule: Q04DX003 (ip), vehicle: other) 109 % of control; (dose: 0.52 mg/kg/injection, schedule: Q04DX003 (ip), vehicle: clinical formulation) 119 % of control; (dose: 0.72 mg/kg/injection, schedule: Q04DX003 (ip), vehicle: water) 115 % of control; (dose: 0.86 mg/kg/injection, schedule: Q04DX003 (ip), vehicle: clinical formulation) 121 % of control. Further, the T/C is, setting by setting: (dose: 1.0 mg/kg/injection, schedule: Q01DX009 (ip), vehicle: other) 91 % of control; (dose: 1.0 mg/kg/injection, schedule: Q01DX009 (ip), vehicle: saline + alcohol) 86 % of control; (dose: 1.0 mg/kg/injection, schedule: Q01DX009 (ip), vehicle: saline) 150 % of control; (dose: 1.0 mg/kg/injection, schedule: Q01DX010 (ip), vehicle: saline) 100 % of control; (dose: 1.44 mg/kg/injection, schedule: Q04DX003 (ip), vehicle: clinical formulation) 114 % of control; (dose: 2.4 mg/kg/injection, schedule: Q04DX003 (ip), vehicle: clinical formulation) 107 % of control. The T/C was 120 % of control (dose: 3.33 mg/kg/injection, schedule: Q04DX003 (ip), vehicle: water); 111 % of control (dose: 125.0 micrograms/kg/injection, schedule: Q01DX009 (ip), vehicle: other); 121 % of control (dose: 375.0 micrograms/kg/injection, schedule: Q04DX003 (ip), vehicle: saline); 118 % of control (dose: 500.0 micrograms/kg/injection, schedule: Q04DX003 (ip), vehicle: saline); 114 % of control (dose: 1000.0 micrograms/kg/injection, schedule: Q01DX009 (ip), vehicle: saline); 92 % of control (dose: 1500.0 micrograms/kg/injection, schedule: Q01DX009 (ip), vehicle: saline). Further, for the setting “dose: 3000.0 micrograms/kg/injection, schedule: Q04DX003 (ip), vehicle: saline”, the T/C was 91 % of control.

`c1ccc2[nH]c(-c3nc4ccccc4s3)cc2c1`: the T/C was 106 % of control (dose: 50.0 mg/kg/injection, schedule: Q01DX009 (ip), vehicle: Klucel (hydroxypropylcellulose) (HPC)); 108 % of control (dose: 100.0 mg/kg/injection, schedule: Q01DX009 (ip), vehicle: Klucel (hydroxypropylcellulose) (HPC)); 98 % of control (dose: 200.0 mg/kg/injection, schedule: Q01DX009 (ip), vehicle: Klucel (hydroxypropylcellulose) (HPC)).

For the compound `O=C(NC(Cc1cccc(F)c1)C(=O)O)c1ccccc1` (stereo not drawn), the T/C is 95 % of control (dose: 6.25 mg/kg/injection, schedule: Q01DX009 (ip), vehicle: other) and 96 % of control (dose: 12.5 mg/kg/injection, schedule: Q01DX009 (ip), vehicle: other).
